The test addresses mTOR/GbL/Raptor (mTORC1) (Homo sapiens, UniProt P42345). Briefly: mTOR/GbL/Raptor (mTORC1) ELISA assay. The test is classed as biochemical. Particulars: phosphorylation of 4E-BP1; 0.2 nM mTORC1, 10 μM ATP; read-out: IC50 in this assay (mTORC1 ELISA). As to the method:
The measurement of mTORC1 enzyme activity was performed in an ELISA assay format following the phosphorylation of 4E-BP1 protein. All experiments were performed in the 384-well format. Generally, 0.5 μL DMSO containing varying concentrations of the test Compound was mixed with 15 μL enzyme solution. Kinase reactions were initiated with the addition of 15 μL of substrates-containing solution. The assay conditions were as follows; 0.2 nM mTORC1, 10 μM ATP and 50 nM NHis-tagged 4E-BP1 in 20 mM Hepes, pH 7.2, 1 mM DTT, 50 mM NaCl, 10 mM MnCl2, 0.02 mg/mL BSA, 0.01% CHAPS, 50 mM β-glycerophosphate. Following an incubation of 120 minutes at ambient temperature, 20 μL of the reaction volume was transferred to a Ni-Chelate-coated 384-well plate. The binding step of the 4E-BP1 protein proceeded for 60 minutes, followed by washing 4 times each with 50 μL of Tris-buffered saline solution (TBS). Anti-phospho-4E-BP1 rabbit-IgG (20 μL, 1:5000) in 5% BSA-TBST (0.2% Tween-20 in TBS) was added and further incubated for 60 minutes. Incubation with a secondary HRP-tagged anti-IgG was similarly performed after washing off the primary antibody (4 washes of 50 μL). Following the final wash step with TBST, 20 μL of SuperSignal ELISA Femto (Pierce Biotechnology) was added and the luminescence measured using an EnVision plate reader.

IC50 data for 21 molecules are collected here from US8648066B2 (Exelixis, Inc., priority 2009, dated 2014).

By IC50 is commonly meant the point on the concentration scale where inhibition reaches its midpoint.

For `CC1=Cc2ncnc(N3CCOc4ccc(-c5cnc(N)c(S(=O)(=O)NC[C@H]6CCN(C)C6)c5)cc4C3)c2CC1(C)C` [Example 424, 2-amino-N-{[(3S)-1-methylpyrrolidin-3-yl]methyl}-5-[4-(6,6,7-trimethyl-5,6-dihydroquinazolin-4-yl)-2,3,4,5-tetrahydro-1,4-benzoxazepin-7-yl]pyridine-3-sulfonamide], the IC50 lay within 50 to 250 nM. The figure for `COC1Cc2nc(CN(C)C)nc(N3CCOc4ccc(-c5cnc6nc(C)[nH]c6c5)cc4C3)c2CC1(C)C` (stereo not drawn) [Example 355, 1-{6,6-dimethyl-4-[7-(2-methyl-1H-imidazo[4,5-b]pyridin-6-yl)-2,3-dihydro-1,4-benzoxazepin-4(5H)-yl]-7-(methyloxy)-5,6,7,8-tetrahydroquinazolin-2-yl}-N,N-dimethylmethanamine] is 50 to 250 nM. For the molecule `Cc1nc2ccc(-c3ccc4c(c3)CN(c3ncnc5scc(C)c35)CCO4)cc2[nH]1` [Example 47, 7-(2-methyl-1H-benzimidazol-6-yl)-4-(5-methylthieno[2,3-d]pyrimidin-4-yl)-2,3,4,5-tetrahydro-1,4-benzoxazepine], the IC50 is ≥ 2000 nM.

Turning to `CCNc1nc2ncc(-c3ccc4c(c3)CN(c3ccncn3)CCO4)cc2[nH]1` [Example 230, N-ethyl-6-(4-pyrimidin-4-yl-2,3,4,5-tetrahydro-1,4-benzoxazepin-7-yl)-1H-imidazo[4,5-b]pyridin-2-amine], the IC50 lay in the range of 50 to 250 nM. For the molecule `CC1(C)CCc2ncnc(N3CCOc4ccc(-c5cnc(OCc6ccccc6)c(NS(C)(=O)=O)c5)cc4C3)c2C1` [Example 631, N-{5-[4-(6,6-dimethyl-5,6,7,8-tetrahydroquinazolin-4-yl)-2,3,4,5-tetrahydro-1,4-benzoxazepin-7-yl]-2-[(phenylmethyl)oxy]pyridin-3-yl}methanesulfonamide], the IC50 was ≥ 2000 nM. The figure for `c1ccc2c(N3CCOc4ccc(-c5ccc6nc[nH]c6c5)cc4C3)ncnc2c1` [Example 123, 7-(1H-benzimidazol-6-yl)-4-quinazolin-4-yl-2,3,4,5-tetrahydro-1,4-benzoxazepine] is 50 to 250 nM; for `CNC(=O)Nc1ccc(-c2ccc3c(c2)CN(c2nc(C)nc4cc(OC)ccc24)CCO3)cc1` [Example 361, 1-methyl-3-(4-{4-[2-methyl-7-(methyloxy)quinazolin-4-yl]-2,3,4,5-tetrahydro-1,4-benzoxazepin-7-yl}phenyl)urea] it is ≥ 2000 nM; for `Cc1ncnc(N2CCOc3ccc(-c4ccn5nc(N)nc5c4)cc3C2)c1Cc1ccc(F)cc1` [Example 146, 7-(4-{5-[(4-fluorophenyl)methyl]-6-methylpyrimidin-4-yl}-2,3,4,5-tetrahydro-1,4-benzoxazepin-7-yl)[1,2,4]triazolo[1,5-a]pyridin-2-amine] it is 10 to 50 nM. The value for `CCNS(=O)(=O)c1cc(-c2ccc3c(c2)CN(c2ncnc4c2CC(C)(C)CC4)CCO3)cnc1N` [Example 396, 2-amino-5-[4-(6,6-dimethyl-5,6,7,8-tetrahydroquinazolin-4-yl)-2,3,4,5-tetrahydro-1,4-benzoxazepin-7-yl]-N-ethylpyridine-3-sulfonamide] was 10 to 50 nM; that for `CC1(C)CCc2ncnc(N3CCOc4ccc(-c5cnc(N)c(S(=O)(=O)NCC6CCCNC6)c5)cc4C3)c2C1` (stereo not drawn) [Example 377, 2-amino-5-[4-(6,6-dimethyl-5,6,7,8-tetrahydroquinazolin-4-yl)-2,3,4,5-tetrahydro-1,4-benzoxazepin-7-yl]-N-(piperidin-3-ylmethyl)pyridine-3-sulfonamide] was 50 to 250 nM. The figure for `COc1ccc2c(N3CCOc4ccc(-c5ccc(OC)c(OC)c5)cc4C3)nc(CN(C)C)nc2c1` [Example 333, 1-[4-{7-[3,4-bis(methyloxy)phenyl]-2,3-dihydro-1,4-benzoxazepin-4(5H)-yl}-7-(methyloxy)quinazolin-2-yl]-N,N-dimethylmethanamine] is ≥ 2000 nM; for `Cn1ccc2cc(-c3ccc4c(c3)CN(c3ccnc5ccccc35)CCO4)cnc21` [Example 222] it is 250 to 1000 nM.

`CCNc1nc2ccc(-c3ccc4c(c3)CN(c3nc(C)nc(Nc5ccccc5)c3C)CCO4)cc2[nH]1` [Example 538, 6-{4-[2,5-dimethyl-6-(phenylamino)pyrimidin-4-yl]-2,3,4,5-tetrahydro-1,4-benzoxazepin-7-yl}-N--ethyl-1H-benzimidazol-2-amine]: the IC50 fell in the range of 50 to 250 nM. As to `COc1ccc(-c2ccc3c(c2)CN(c2nc(CN(C)C)nc4c2CC(C)(C)CC4)CCO3)cc1S(C)(=O)=O` [Example 652, 1-(6,6-dimethyl-4-{7-[4-(methyloxy)-3-(methylsulfonyl)phenyl]-2,3-dihydro-1,4-benzoxazepin-4(5H)-yl}-5,6,7,8-tetrahydroquinazolin-2-yl)-N,N-dimethylmethanamine], the IC50 fell in the range of 250 to 1000 nM. The figure for `Cc1ncnc(N2CCOc3ccc(-c4cnc(N)nc4)cc3C2)c1Cc1ccc(F)cc1` [Example 153, 5-(4-{5-[(4-fluorophenyl)methyl]-6-methylpyrimidin-4-yl}-2,3,4,5-tetrahydro-1,4-benzoxazepin-7-yl)pyrimidin-2-amine] is ≤ 10 nM; for `Cc1nc2cc(-c3ccc4c(c3)CN(c3nc([C@@H]5CCCN5)nc5c3CC(C)(C)CC5)CCO4)cnc2[nH]1` [Example 507, 4-{6,6-dimethyl-2-[(2S)-pyrrolidin-2-yl]-5,6,7,8-tetrahydroquinazolin-4-yl}-7-(2-methyl-3H-imidazo[4,5-b]pyridin-6-yl)-2,3,4,5-tetrahydro-1,4-benzoxazepine] it is ≤ 10 nM. The figure for `Cc1c(NCC2CCN(C)CC2)ncnc1N1CCOc2ccc(-c3cnc4nc(C5CC5)[nH]c4c3)cc2C1` [Example 533, 6-[7-(2-cyclopropyl-1H-imidazo[4,5-b]pyridin-6-yl)-2,3-dihydro-1,4-benzoxazepin-4(5H)-yl]-5-methyl-N-[(1-methylpiperidin-4-yl)methyl]pyrimidin-4-amine] is ≥ 2000 nM. In the case of `CCOc1ncc(-c2ccc3c(c2)CN(c2ncnc4c2CC(C)(C)CC4)CCO3)cc1NS(C)(=O)=O` [Example 626, N-{5-[4-(6,6-dimethyl-5,6,7,8-tetrahydroquinazolin-4-yl)-2,3,4,5-tetrahydro-1,4-benzoxazepin-7-yl]-2-(ethyloxy)pyridin-3-yl}methanesulfonamide], the IC50 lay within 10 to 50 nM. On to `CC(C)NS(=O)(=O)c1cc(-c2ccc3c(c2)CN(c2ncnc4c2CC(C)(C)CC4)CCO3)cnc1N` [Example 364, 2-amino-5-[4-(6,6-dimethyl-5,6,7,8-tetrahydroquinazolin-4-yl)-2,3,4,5-tetrahydro-1,4-benzoxazepin-7-yl]-N-(1-methylethyl)pyridin-3-sulfonamide], for which the IC50 lay in the range of 10 to 50 nM.

Consider `COc1ncc(-c2ccc3c(c2)CN(c2ncnc4c2CC(C)(C)CC4)CCO3)cc1NS(C)(=O)=O` [Example 628, N-{5-[4-(6,6-dimethyl-5,6,7,8-tetrahydroquinazolin-4-yl)-2,3,4,5-tetrahydro-1,4-benzoxazepin-7-yl]-2-(methyloxy)pyridin-3-yl}methanesulfonamide], for which the IC50 lay within 10 to 50 nM. The value for `CCC1CCc2ncnc(N3CCOc4ccc(-c5cnc6nc(N)[nH]c6c5)cc4C3)c2C1` (stereo not drawn) [Example 178, 6-[4-(6-ethyl-5,6,7,8-tetrahydroquinazolin-4-yl)-2,3,4,5-tetrahydro-1,4-benzoxazepin-7-yl]-1H-imidazo[4,5-b]pyridin-2-amine] was ≤ 10 nM.
